Numbered stars: 1 amine (or outer) side, 2 acyl side, 3 side chain; on linkers, the order of the positions; unused ones are H or OH. Square brackets hold non-standard residues; d marks the D form. Side chains are listed from the residue outwards. Ends that are not written are not given here. Peptide text beside a SMILES is read from it. * marks the point of attachment. γGlu = O=C(O)[C@H](CCC(=O)[*:2])N[*:1]; Palmitoyl = CCCCCCCCCCCCCCCC(=O)*; Aib = CC(C)(N)C(=O)O
How the values were obtained:
[1] = system: isolated working hearts from control and insulin-resistant JCR:LA-cp rats; assay: Inotropic effect and energy state in isolated working heart model; set-up: species or system rat; details: compared with vehicle perfused hearts
Experimental: Following perfusions, high energy phosphate nucleotide concentrations were measured by high performance liquid chromatography (HPLC) (Ally, A and Park, G. Rapid determination of creatine, phosphocreatine, purine bases and nucleotides (ATP, ADP, AMP, GTP, GDP) in heart biopsies by gradient ion-pair reversed-phase liquid chromatography. Journal of Chromatography. 1992; 575: 19-27).

[2] = system: anesthetized male Sprague-Dawley rats; assay: Inotropic effect in vivo in anaesthetized rats (stroke work, heart rate); details: for heart rate / increase in strokework: i.v. infusion; for heart rate: 0.2 and 0.5 nmol/kg/min; for increase in strokework: at a given infusion rate (up to 2.5 nmol/kg/min), 40% set as end point
Source text: The rats were exposed to 5% isoflurane in 1:2 N2O:O2 until anesthesia were established.
A catheter was inserted into the left femoral vein for drug administration and a pressure-volume catheter was inserted into the left ventricle via the right carotid artery. After instrumentation, isoflurane was delivered in pure O2 during the experiment.
The horizontal line marks 40% increase in stroke work, which was defined as the maximal increase that should be obtained during the experiment.

[3] = target: T1, human glucagon receptor (Homo sapiens, UniProt P47871); assay: cAMP formation in HEK293 cells expressing the human glucagon receptor; assay type: cell-based; details: 15 min at 37° C., read-out: EC50 (nM) GuR
T1 construct: expressed in transfected cells; host or cells: HEK293
T1 sequence (P47871 26-477): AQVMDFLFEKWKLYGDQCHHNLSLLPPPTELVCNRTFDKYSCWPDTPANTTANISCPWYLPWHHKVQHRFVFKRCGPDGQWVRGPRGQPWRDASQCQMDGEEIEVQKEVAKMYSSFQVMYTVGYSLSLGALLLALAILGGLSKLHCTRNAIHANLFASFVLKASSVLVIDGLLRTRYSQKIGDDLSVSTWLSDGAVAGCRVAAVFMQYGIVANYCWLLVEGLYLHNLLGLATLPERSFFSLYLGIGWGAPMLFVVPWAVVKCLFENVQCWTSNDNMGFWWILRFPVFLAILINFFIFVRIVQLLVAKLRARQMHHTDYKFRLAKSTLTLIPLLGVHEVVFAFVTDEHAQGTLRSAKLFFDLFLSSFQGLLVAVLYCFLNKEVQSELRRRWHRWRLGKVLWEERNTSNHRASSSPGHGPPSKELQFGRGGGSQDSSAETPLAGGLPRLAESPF
Source text: (§1) Similarly, activation of the GLP-1 receptor by a GLP-1 agonist will stimulate cellular cAMP formation. Thus, production of cAMP in suitable cells expressing one of these two receptors can be used to monitor the relevant receptor activity.
(§2) The skilled person will be aware of suitable assay formats, and examples are provided below. […] (Where sequences of precursor proteins are referred to, it should of course be understood that assays may make use of the mature protein, lacking the signal sequence).
(§3) On the day of analysis, growth medium was removed and the cells washed once with 200 μl Tyrode buffer. Cells were incubated in […] containing increasing concentrations of test peptides, 100 μM IBMX, and 6 mM glucose for 15 min at 37° C. The reaction was stopped by addition of 25 μl 0.5 M HCl and incubated on ice for 60 min. The cAMP content was estimated using the FlashPlate® cAMP kit from Perkin-Elmer. EC50 values were estimated by computer aided curve fitting.

[4] = target: T2, human GLP-1R (Homo sapiens, UniProt P43220); assay: cAMP formation in HEK293 cells expressing human GLP-1R; assay type: cell-based; details: 15 min at 37° C.
T2 construct: expressed in transfected cells; host or cells: HEK293
T2 sequence (P43220 24-463): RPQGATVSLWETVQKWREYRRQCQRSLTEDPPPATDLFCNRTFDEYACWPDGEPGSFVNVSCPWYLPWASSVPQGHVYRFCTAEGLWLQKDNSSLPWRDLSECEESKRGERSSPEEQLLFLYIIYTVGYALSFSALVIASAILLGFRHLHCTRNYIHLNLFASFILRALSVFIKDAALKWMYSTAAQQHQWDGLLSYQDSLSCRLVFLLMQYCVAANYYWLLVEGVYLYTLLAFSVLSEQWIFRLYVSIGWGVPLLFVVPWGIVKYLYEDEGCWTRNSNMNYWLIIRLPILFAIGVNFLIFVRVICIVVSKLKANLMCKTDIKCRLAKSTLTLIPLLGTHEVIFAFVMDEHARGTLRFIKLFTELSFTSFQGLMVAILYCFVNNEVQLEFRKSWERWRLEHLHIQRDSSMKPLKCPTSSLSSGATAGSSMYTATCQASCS
Source text: as §1, §2, §3

Molecule	EC50 [3] [nM]	EC50 [4] [nM]	further results
H-HSQGTFTSDYSKYLDRARADDFVAWLKST-NH2 [Compound 12]			energetic state of the hearts [1]: not significantly different from vehicle perfused hearts
CC[C@H](C)[C@H](NC(=O)[C@H](Cc1ccccc1)NC(=O)[C@H](CC(=O)O)NC(=O)[C@H](CCCCN)NC(=O)[C@H](C)NC(=O)[C@H](CCCNC(=N)N)NC(=O)[C@H](CCCNC(=N)N)NC(=O)[C@H](CCC(=O)O)NC(=O)[C@H](CC(=O)O)NC(=O)[C@H](CC(C)C)NC(=O)[C@H](Cc1ccc(O)cc1)NC(=O)[C@H](CCCCN)NC(=O)[C@H](CO)NC(=O)[C@H](Cc1ccc(O)cc1)NC(=O)[C@H](CC(=O)O)NC(=O)[C@H](CO)NC(=O)[C@@H](NC(=O)[C@H](Cc1ccccc1)NC(=O)[C@@H](NC(=O)CNC(=O)[C@H](CCC(N)=O)NC(=O)[C@H](CO)NC(=O)[C@@H](N)Cc1c[nH]cn1)[C@@H](C)O)[C@@H](C)O)C(=O)N[C@@H](CCC(=O)O)C(=O)N[C@@H](Cc1c[nH]c2ccccc12)C(=O)N[C@@H](CC(C)C)C(=O)N[C@@H](CC(C)C)C(=O)N[C@@H](CO)C(=O)N[C@@H](C)C(N)=O [Compound 35]			heart rate [2]: tendency
HSQGTFTSDYSKYLDRARADDFVAWLERA [Compound 9]			increase in strokework [2]: 40%
HSQGTFTSDYSKYLDSKAARDFVRWLKLA-NH2 [Compound 37]			heart rate [2]: tendency
CCCCCCCCCCCCCCCC(=O)N[C@@H](CCC(=O)NCCCC[C@H](NC(=O)[C@H](C)NC(=O)[C@H](C)NC(=O)[C@H](CCCCN)NC(=O)[C@H](CO)NC(=O)[C@H](CC(=O)O)NC(=O)[C@H](CC(C)C)NC(=O)[C@H](Cc1ccc(O)cc1)NC(=O)[C@H](CCCCN)NC(=O)[C@H](CO)NC(=O)[C@H](Cc1ccc(O)cc1)NC(=O)[C@H](CC(=O)O)NC(=O)[C@H](CO)NC(=O)[C@@H](NC(=O)[C@H](Cc1ccccc1)NC(=O)[C@@H](NC(=O)CNC(=O)[C@H](CCC(N)=O)NC(=O)[C@H](CO)NC(=O)[C@@H](N)Cc1c[nH]cn1)[C@@H](C)O)[C@@H](C)O)C(=O)N[C@@H](CC(=O)O)C(=O)N[C@@H](Cc1ccccc1)C(=O)N[C@H](C(=O)N[C@@H](CCC(=O)O)C(=O)N[C@@H](Cc1c[nH]c2ccccc12)C(=O)N[C@@H](CC(C)C)C(=O)N[C@@H](CC(C)C)C(=O)N[C@@H](CCCNC(=N)N)C(=O)N[C@@H](C)C(N)=O)C(C)C)C(=O)O [Compound 204] (H-HSQGTFTSDYSKYLDSKAAK([γGlu-Palmitoyl])DFVEWLLRA-NH2)	0.04	0.1	
CCCCCCCCCCCCCCCC(=O)N[C@@H](CCC(=O)NCCCC[C@H](NC(=O)[C@H](CO)NC(=O)[C@H](CC(=O)O)NC(=O)[C@H](CC(C)C)NC(=O)[C@H](Cc1ccc(O)cc1)NC(=O)[C@H](CCCCN)NC(=O)[C@H](CO)NC(=O)[C@H](Cc1ccc(O)cc1)NC(=O)[C@H](CC(=O)O)NC(=O)[C@H](CO)NC(=O)[C@@H](NC(=O)[C@H](Cc1ccccc1)NC(=O)[C@@H](NC(=O)CNC(=O)[C@H](CCC(N)=O)NC(=O)C(C)(C)NC(=O)[C@@H](N)Cc1c[nH]cn1)[C@@H](C)O)[C@@H](C)O)C(=O)N[C@@H](C)C(=O)N[C@@H](C)C(=O)N[C@@H](Cc1c[nH]cn1)C(=O)N[C@@H](CC(=O)O)C(=O)N[C@@H](Cc1ccccc1)C(=O)N[C@H](C(=O)N[C@@H](CCC(=O)O)C(=O)N[C@@H](Cc1c[nH]c2ccccc12)C(=O)N[C@@H](CC(C)C)C(=O)N[C@@H](CC(C)C)C(=O)N[C@@H](CCCNC(=N)N)C(=O)N[C@@H](C)C(N)=O)C(C)C)C(=O)O [Compound 206] (H-H[Aib]QGTFTSDYSKYLDSK([γGlu-Palmitoyl])AAHDFVEWLLRA-NH2)	0.16	0.09	duration of strokework increase ([2]; after end of compound infusion, during final vehicle infusion): prolonged increase in strokework that outlasted the compound infusion; increase in strokework [2]: 40%
CC(C)C[C@H](NC(=O)[C@H](Cc1ccc(O)cc1)NC(=O)[C@H](CCCCN)NC(=O)[C@H](CO)NC(=O)[C@H](Cc1ccc(O)cc1)NC(=O)[C@H](CC(=O)O)NC(=O)[C@H](CO)NC(=O)[C@@H](NC(=O)[C@H](Cc1ccccc1)NC(=O)[C@@H](NC(=O)CNC(=O)[C@H](CCC(N)=O)NC(=O)[C@H](CO)NC(=O)[C@@H](N)Cc1c[nH]cn1)[C@@H](C)O)[C@@H](C)O)C(=O)N[C@@H](CC(=O)O)C(=O)N[C@@H](CO)C(=O)N[C@@H](CCCNC(=N)N)C(=O)N[C@@H](CCCNC(=N)N)C(=O)N[C@@H](C)C(=O)N[C@@H](CCC(N)=O)C(=O)N[C@@H](CC(=O)O)C(=O)N[C@@H](Cc1ccccc1)C(=O)N[C@H](C(=O)N[C@@H](Cc1c[nH]c2ccccc12)C(=O)N[C@@H](CC(C)C)C(=O)N[C@@H](CCC(=O)O)C(=O)N[C@@H](CCCNC(=N)N)C(=O)N[C@@H](C)C(N)=O)C(C)C [Compound 251]	0.1	0.2	
H-HSQGTFTSDYSKYLDSRHAQDFVWLMNT-NH2 [Compound 244]	0.05	0.5	
CC(C)C[C@H](NC(=O)[C@H](Cc1ccc(O)cc1)NC(=O)[C@H](CCCCN)NC(=O)[C@H](CO)NC(=O)[C@H](Cc1ccc(O)cc1)NC(=O)[C@H](CC(=O)O)NC(=O)[C@H](CO)NC(=O)[C@@H](NC(=O)[C@H](Cc1ccccc1)NC(=O)[C@@H](NC(=O)CNC(=O)[C@H](CCC(N)=O)NC(=O)[C@H](CO)NC(=O)[C@@H](N)Cc1c[nH]cn1)[C@@H](C)O)[C@@H](C)O)C(=O)N[C@@H](CC(=O)O)C(=O)N[C@@H](CO)C(=O)N[C@@H](CCCNC(=N)N)C(=O)N[C@@H](CCCNC(=N)N)C(=O)N[C@@H](C)C(=O)N[C@@H](CCC(N)=O)C(=O)N[C@@H](CC(=O)O)C(=O)N[C@@H](Cc1ccccc1)C(=O)N[C@H](C(=O)N[C@@H](Cc1c[nH]c2ccccc12)C(=O)N[C@@H](CC(C)C)C(=O)N[C@@H](CCC(=O)O)C(=O)N[C@@H](CO)C(=O)N[C@@H](C)C(N)=O)C(C)C [Compound 248]	0.1	0.5	
CC(C)C[C@H](NC(=O)[C@H](Cc1ccc(O)cc1)NC(=O)[C@H](CCCCN)NC(=O)[C@H](CO)NC(=O)[C@H](Cc1ccc(O)cc1)NC(=O)[C@H](CC(=O)O)NC(=O)[C@H](CO)NC(=O)[C@@H](NC(=O)[C@H](Cc1ccccc1)NC(=O)[C@@H](NC(=O)CNC(=O)[C@H](CCC(N)=O)NC(=O)[C@H](CO)NC(=O)[C@@H](N)Cc1c[nH]cn1)[C@@H](C)O)[C@@H](C)O)C(=O)N[C@@H](CC(=O)O)C(=O)N[C@@H](CO)C(=O)N[C@@H](CCCNC(=N)N)C(=O)N[C@@H](CCCNC(=N)N)C(=O)N[C@@H](C)C(=O)N[C@@H](CCC(N)=O)C(=O)N[C@@H](CC(=O)O)C(=O)N[C@@H](Cc1ccccc1)C(=O)N[C@H](C(=O)N[C@@H](Cc1c[nH]c2ccccc12)C(=O)N[C@@H](CC(C)C)C(=O)N[C@@H](CCCCN)C(=O)N[C@@H](CCCNC(=N)N)C(=O)N[C@@H](C)C(N)=O)C(C)C [Compound 250]	0.1	0.3	
